Assay results reported in patent US20060189576A1, “Substituted vitamin d analogues and their therapeutic uses” (priority 2003, published 2006).
Like-named read-outs stand apart in the source and are kept apart here.

What was measured:
hDBP = biological target: T1, hDBP (Homo sapiens, UniProt P02774); assay: Affinity for human DBP: competition with [3H]1α,25(OH)2D3; type: binding; settings: percentage activity (at 50% of the dose response) in comparison with 1α,25(OH)2D3 (=100%)
T1 sequence (P02774 17-474): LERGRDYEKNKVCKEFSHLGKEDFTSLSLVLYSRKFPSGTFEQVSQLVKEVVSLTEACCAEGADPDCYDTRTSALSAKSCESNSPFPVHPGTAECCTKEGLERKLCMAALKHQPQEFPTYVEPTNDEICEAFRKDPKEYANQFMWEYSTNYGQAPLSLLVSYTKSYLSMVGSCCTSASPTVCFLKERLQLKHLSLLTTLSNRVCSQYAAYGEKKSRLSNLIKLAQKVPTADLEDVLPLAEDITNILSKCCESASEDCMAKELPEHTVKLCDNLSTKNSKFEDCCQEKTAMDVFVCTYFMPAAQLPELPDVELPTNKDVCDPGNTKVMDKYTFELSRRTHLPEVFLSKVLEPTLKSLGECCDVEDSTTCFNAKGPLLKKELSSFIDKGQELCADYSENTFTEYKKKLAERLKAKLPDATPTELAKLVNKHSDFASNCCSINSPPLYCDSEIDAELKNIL
Procedure: Phase separation was then obtained by the addition of 0.5 ml of cold dextran-coated charcoal.

HL-60 cells = assay: HL-60 cell differentiation (NBT reduction assay); type: cell-based; settings: for IN VITRO STUDIES HL 60: potency to differentiate HL 60 cells, percentage activity vs 1α,25(OH)2D3 (=100%)
Procedure: To evaluate the effect on cell differentiation HL-60 cells were seeded at 4×10^4 cells/ml in 25 cm^2 Falcon tissue chambers using RPMI 1640 medium supplemented with 20% FCS and gentamycin (50 μg/ml) in a final volume of 5 ml. Cultures were maintained at 37° C. in a humidified atmosphere of 5% CO2 in air. […] After 4 days of culture, the dishes were shaken to lose adherent cells. Cells were washed twice in RPMI, counted and assayed for differentiation markers (NBT reduction assay). Superoxide production was measured as NBT reducing activity as described previously (Ostrem V. K et al. Proc Natl Acad Sci USA 84: 2610-2614, 1987). HL-60 cells at 1×10^6/ml were mixed with an equal volume of freshly prepared solution of phorbol 12-myristate 13-acetate (200 ng/ml) and […] and incubated for 30 min at 37° C. The percentage of cells containing black formazan deposits was determined using a hemacytometer.

MCF-7 cells = assay: MCF-7 cell proliferation ([3H]thymidine incorporation); type: cell-based; settings: for IN VITRO STUDIES MCF-7: antiproliferative action, percentage activity vs 1α,25(OH)2D3 (=100%); for Antiproliferative activity on MCF-7 cells: percentage activity (at 50% of the dose response) vs 1α,25(OH)2D3 (=100%)
Procedure: To evaluate the effect of on cell proliferation, malignant MCF-7 cells were cultured in DMEM/nut. mix. […] Cultures were maintained at 37° C. in a humidified atmosphere of 5% CO2 in air. MCF-7 cells were seeded at 5×10^3 cells/well in the above described medium in 96-well microtiter plates in a final volume of 0.2 ml per well. Triplicate cultures were performed. […] Then, 1 μCi [^3H]thymidine was added to each well and cells were harvested after 4 h incubation with a Packard harvester and measured by the Packard Topcount System (Packard, Meriden, USA).

vitamin D receptor = biological target: T2, vitamin D receptor (Sus scrofa, UniProt A3RGC1); settings: percentage activity (at 50% of the dose response) in comparison with 1α,25(OH)2D3 (=100%)
T2 sequence (A3RGC1 1-427): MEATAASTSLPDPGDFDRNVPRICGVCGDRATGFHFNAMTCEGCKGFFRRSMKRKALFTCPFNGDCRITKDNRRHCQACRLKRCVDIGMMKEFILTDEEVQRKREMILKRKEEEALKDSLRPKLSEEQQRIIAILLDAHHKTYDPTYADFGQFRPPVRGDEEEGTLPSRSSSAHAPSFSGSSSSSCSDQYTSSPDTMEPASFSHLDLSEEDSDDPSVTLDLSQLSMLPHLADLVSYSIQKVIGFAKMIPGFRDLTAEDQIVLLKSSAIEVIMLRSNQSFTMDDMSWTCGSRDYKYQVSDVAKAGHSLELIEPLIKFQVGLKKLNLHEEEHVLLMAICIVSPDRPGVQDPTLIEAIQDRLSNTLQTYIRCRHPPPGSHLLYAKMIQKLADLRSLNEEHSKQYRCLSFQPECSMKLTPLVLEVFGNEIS
Procedure: The incubation was performed at 4° C. for 20 h and phase separation was obtained by addition of dextran-coated charcoal.

[1] = for IN VIVO STUDIES Calcium serum / IN VIVO STUDIES Calcium urine / Serum calcium in mice: ip; for IN VIVO STUDIES Osteocalcin serum: mice, daily intraperitoneal injection 7 consecutive days, percentage activity vs 1α,25(OH)2D3 (=100%); for Femur calcium: NMRI mice, 7 consecutive days
Procedure: Eight weeks old, male NMRI mice were obtained from the Proefdierencentrum of Leuven (Belgium) and fed a vitamin D-replete diet (0.2% calcium, 1% phosphate, 2000 U vitamin D/kg; Hope Farms, Woerden, The Netherlands). […] The control group was injected with vehicle (arachis oil). The average weight of each group of 6 mice was determined at the beginning and at the end of the experiment. The following parameters were evaluated: serum calcium, serum osteocalcin, femur calcium and urinary calcium. Serum and urinary calcium were measured by a microcolorimetric assay (Sigma, St. Louis, Mo.). Femurs were removed and femur calcium content was measured in HCl-dissolved bone ash (obtained by heating for 24 h in an oven at 100° C.), using the same technique as for serum and urinary calcium.

Structure (SMILES) | AFFINITY STUDIES DBP (hDBP) [%] | AFFINITY STUDIES VDR (vitamin D receptor) [%] | IN VIVO STUDIES Calcium serum ([1]; mouse, in vivo) [%] | IN VIVO STUDIES Calcium urine ([1]; mouse, in vivo) [%] | Serum calcium in mice ([1]; mouse, in vivo) [%] | further reduction of calcemic activity by the 2β counterpart ([1]; mouse, in vivo) [fold] | prodifferentiating effect (in words) (HL-60 cells; HL 60 cells) | IN VITRO STUDIES HL 60 (HL-60 cells) [%] | IN VITRO STUDIES MCF-7 (MCF-7 cells) [%] | times less active than the parent compound to inhibit MCF-7 cell proliferation (MCF-7 cells; parent compound 1α,25(OH)2D3) [times] | antiproliferative effect (in words) (MCF-7 cells; MCF-7 cells) | IN VIVO STUDIES Osteocalcin serum [1] [%] | times more potent than 1α,25(OH)2D3 in vitro (MCF-7 cells; range over HL 60 differentiation and MCF-7 proliferation, test not specified) [times] | Antiproliferative activity on MCF-7 cells (MCF-7 cells) [%] | prodifferentiating activity, times that of 1α,25(OH)2D3 (HL-60 cells; HL 60 cells) [times] | antiproliferative activity, times that of 1α,25(OH)2D3 (MCF-7 cells; MCF-7 cells) [times] | Femur calcium ([1]; 0.1 μg/kg/d intraperitoneally) [mg] | Femur calcium ([1]; 0.2 μg/kg/d intraperitoneally) [mg] | Femur calcium ([1]; 0.4 μg/kg/d intraperitoneally) [mg] | enhancement of antiproliferative effects on MCF-7 cells on introduction of the 23-yne side chain (MCF-7 cells; compared with 2α-ethyl-19-nor-1α,25(OH)2D3 (110)) [fold]
C[C@H](CCCC(C)(C)O)[C@H]1CC[C@@H]2/C(=C/C=C3C[C@@H](O)C[C@H](O)C3)CCC[C@@]21C [14-epi-19-nor-1α,25(OH)2D3, reference compound] | 15 | 19 | 0.3 | 0.4 | – | – | half as potent as the parent compound | 50 | 30 | 3 | – | – | – | – | – | – | – | – | – | –
CCC1C(O)CC(=CC=C2CCCC3(C)C2CCC3C(C)CC#CC(C)(C)O)CC1O (stereo not shown) [Compound 142] | – | 10 | – | – | – | – | very potent | 400 | 1500 | – | very potent | – | – | – | – | – | – | – | – | –
CC(CCCC(C)(C)O)C1CCC2C(=CC=C3CC(O)C(C)C(O)C3)CCCC21C (stereo not drawn) [Compound 105, 14-epi-2β-methyl-19-nor-1α,25-dihydroxyvitamin D3] | 7 | 60 | 0.4 | 0.4 | – | – | – | 75 | 20 | – | – | 0.8 | – | – | – | – | – | – | – | –
CCC1C(O)CC(=CC=C2CCCC3(C)C2CCC3C(C)CCCC(C)(C)O)CC1O (stereo not drawn) [Compound 110, 2α-ethyl-19-nor-1α,25(OH)2D3] | 20 | 90 | 13 | 13 | – | – | very potent | 200 | 650 | – | very potent | 13 | 2 to 6 | – | – | – | – | – | – | –
CCC1C(O)CC(=CC=C2CCCC3(C)C2CCC3C(C)CC#CC(C)(C)O)CC1O (stereo not drawn) [Compound 111, 2β-ethyl-19-nor-23-yne-1α,25(OH)2D3] | 0.5 | 9 | 0.4 | 0.8 | 0.4 | – | – | 80 | 700 | – | – | 0.8 | – | 700 | – | – | – | – | – | –
CC(CCCC(C)(C)O)C1CCC2C(=CC=C3CC(O)C(C)C(O)C3)CCCC21C (stereo not drawn) [Compound 102, 2α-methyl-19-nor-1α,25-dihydroxyvitamin D3] | 50 | 90 | 40 | – | – | – | very potent | 1000 | 400 | – | very potent | 15 | – | – | 10 | 4 | – | – | – | –
CCC1C(O)CC(=CC=C2CCCC3(C)C2CCC3C(C)CC#CC(C)(C)O)CC1O (stereo not drawn) [Compound 116, 2α-ethyl-14-epi-19-nor-23-yne-1α,25(OH)2D3] | 0.1 | 65 | 0.2 | – | 0.2 | – | very potent | 550 | 3000 | – | very potent | 0.2 | – | 3000 | – | – | – | – | – | –
C=C1/C(=C\C=C2/CCC[C@]3(C)[C@@H]([C@H](C)CCCC(C)(C)O)CC[C@@H]23)C[C@@H](O)C[C@@H]1O [1α,25(OH)2D3, 1α,25-dihydroxyvitamin D3, reference compound] | – | – | 100 | 100 | 100 | – | – | 100 | 100 | – | – | 100 | – | 100 | – | – | 8.9 ± 0.50 | 9.23 ± 0.31 | 8.75 ± 0.15 | –
CC(CCCC(C)(C)O)C1CCC2C(=CC=C3CC(O)C(C)C(O)C3)CCCC21C (stereo not drawn) [Compound 101, 2β-methyl-19-nor-1α,25-dihydroxyvitamin D3] | 9 | 75 | 0.5 | – | – | 80 | less potent than 1α,25(OH)2D3 | 70 | 80 | – | less potent than 1α,25(OH)2D3 | – | – | – | – | – | – | – | – | –

Second part, led by results:

AFFINITY STUDIES DBP (hDBP) [%] | AFFINITY STUDIES VDR (vitamin D receptor) [%] | IN VIVO STUDIES Calcium serum ([1]; mouse, in vivo) [%] | IN VIVO STUDIES Calcium urine ([1]; mouse, in vivo) [%] | Serum calcium in mice ([1]; mouse, in vivo) [%] | further reduction of calcemic activity by the 2β counterpart ([1]; mouse, in vivo) [fold] | Structure (SMILES) | prodifferentiating effect (in words) (HL-60 cells; HL 60 cells) | IN VITRO STUDIES HL 60 (HL-60 cells) [%] | IN VITRO STUDIES MCF-7 (MCF-7 cells) [%] | times less active than the parent compound to inhibit MCF-7 cell proliferation (MCF-7 cells; parent compound 1α,25(OH)2D3) [times] | antiproliferative effect (in words) (MCF-7 cells; MCF-7 cells) | IN VIVO STUDIES Osteocalcin serum [1] [%] | times more potent than 1α,25(OH)2D3 in vitro (MCF-7 cells; range over HL 60 differentiation and MCF-7 proliferation, test not specified) [times] | Antiproliferative activity on MCF-7 cells (MCF-7 cells) [%] | prodifferentiating activity, times that of 1α,25(OH)2D3 (HL-60 cells; HL 60 cells) [times] | antiproliferative activity, times that of 1α,25(OH)2D3 (MCF-7 cells; MCF-7 cells) [times] | Femur calcium ([1]; 0.1 μg/kg/d intraperitoneally) [mg] | Femur calcium ([1]; 0.2 μg/kg/d intraperitoneally) [mg] | Femur calcium ([1]; 0.4 μg/kg/d intraperitoneally) [mg] | enhancement of antiproliferative effects on MCF-7 cells on introduction of the 23-yne side chain (MCF-7 cells; compared with 2α-ethyl-19-nor-1α,25(OH)2D3 (110)) [fold]
0 | 40 | <0.25 | <0.25 | – | – | CC(CC#CC(C)(C)O)C1CCC2C(=CC=C3CC(O)C(C)C(O)C3)CCCC21C (stereo not drawn) [Compound 117, 3,14-bis-epi-2α-methyl-19-nor-23-yn-1α,25-dihydroxyvitamin-D3] | very potent | 400 | – | – | very potent | – | – | – | – | – | – | – | – | –
3 | 6 | <0.25 | <0.25 | – | – | CC(CC#CC(C)(C)O)C1CCC2C(=CC=C3CC(O)C(C)C(O)C3)CCCC21C (stereo not drawn) [Compound 118, 1,14-bis-epi-2β-methyl-19-nor-23-yn-1α,25-dihydroxyvitamin-D3] | not active at all | 0 | – | – | – | – | – | – | – | – | – | – | – | –
0 | 10 | 0.4 | 1.6 | – | – | CC(CC#CC(C)(C)O)C1CCC2C(=CC=C3CC(O)C(C)C(O)C3)CCCC21C (stereo not drawn) [Compound 107, 14-epi-2β-methyl-19-nor-23-yn-1α,25-dihydroxyvitamin D3] | – | 400 | 350 | – | – | 0.8 | – | – | – | – | – | – | – | –
– | 9 | – | – | – | – | CC(CC#CC(C)(C)O)C1CCC2C(=CC=C3CC(O)C(C)C(O)C3)CCCC21C (stereo not shown) [Compound 141] | very potent | 1500 | 4500 | – | very potent | – | – | – | – | – | – | – | – | –
0.9 | 55 | 1.6 | 0.8 | – | – | CCC1C(O)CC(=CC=C2CCCC3(C)C2CCC3C(C)CC#CC(C)(C)O)CC1O (stereo not drawn) [Compound 112, 2α-ethyl-19-nor-23-yne-1α,25(OH)2D3] | very potent | 300 | 2000 | – | very potent | 3 | – | – | – | – | – | – | – | 3
